Source: the NIST ThermoML archive (doi:10.1021/je060170c)
Numbers after ± are expanded uncertainties.

Assay: xn = mol fraction of the nth substance listed
Conditions: 101 kPa, Liquid; for viscosity: Anton Paar Stabinger viscometer

SMILES: Cc1cc(C)cc(C)c1 [1,3,5-trimethylbenzene] + COc1ccccc1
- viscosity (288.15 K, x2 = 0): 0.754 ± 0.023 mPa·s
- viscosity (288.15 K, x2 = 0.074): 0.769 ± 0.023 mPa·s
- viscosity (288.15 K, x2 = 0.181): 0.802 ± 0.024 mPa·s
- viscosity (288.15 K, x2 = 0.334): 0.849 ± 0.026 mPa·s
- viscosity (288.15 K, x2 = 0.4982): 0.893 ± 0.027 mPa·s
- viscosity (288.15 K, x2 = 0.628): 0.965 ± 0.029 mPa·s
- viscosity (288.15 K, x2 = 0.7512): 1.005 ± 0.031 mPa·s
- viscosity (288.15 K, x2 = 0.814): 1.061 ± 0.032 mPa·s
- viscosity (288.15 K, x2 = 0.875): 1.101 ± 0.033 mPa·s
- viscosity (288.15 K, x2 = 0.94): 1.158 ± 0.035 mPa·s
- mass density (288.15 K, x2 = 0): 869.169 ± 0.42 kg/m3
- speed of sound (288.15 K, x2 = 0): 1377.5 ± 5.6 m/s
- mass density (288.15 K, x2 = 0.074): 876.661 ± 0.41 kg/m3
- speed of sound (288.15 K, x2 = 0.074): 1383.1 ± 5.6 m/s
- mass density (288.15 K, x2 = 0.181): 887.986 ± 0.4 kg/m3
- speed of sound (288.15 K, x2 = 0.181): 1390.7 ± 5.6 m/s
- mass density (288.15 K, x2 = 0.334): 905.232 ± 0.37 kg/m3
- speed of sound (288.15 K, x2 = 0.334): 1400.3 ± 5.7 m/s
- mass density (288.15 K, x2 = 0.4982): 925.26 ± 0.34 kg/m3
- speed of sound (288.15 K, x2 = 0.4982): 1408 ± 5.7 m/s
- mass density (288.15 K, x2 = 0.628): 942.318 ± 0.31 kg/m3
- speed of sound (288.15 K, x2 = 0.628): 1420.3 ± 5.7 m/s
- mass density (288.15 K, x2 = 0.7512): 959.611 ± 0.28 kg/m3
- speed of sound (288.15 K, x2 = 0.7512): 1426.3 ± 5.7 m/s
- mass density (288.15 K, x2 = 0.814): 968.893 ± 0.27 kg/m3
- speed of sound (288.15 K, x2 = 0.814): 1433.8 ± 5.8 m/s
- mass density (288.15 K, x2 = 0.875): 978.238 ± 0.26 kg/m3
- speed of sound (288.15 K, x2 = 0.875): 1438.6 ± 5.8 m/s
- mass density (288.15 K, x2 = 0.94): 988.554 ± 0.24 kg/m3
- speed of sound (288.15 K, x2 = 0.94): 1445.6 ± 5.8 m/s
- viscosity (293.15 K, x2 = 0): 0.705 ± 0.021 mPa·s
- viscosity (293.15 K, x2 = 0.074): 0.716 ± 0.022 mPa·s
- viscosity (293.15 K, x2 = 0.181): 0.743 ± 0.023 mPa·s
- viscosity (293.15 K, x2 = 0.334): 0.782 ± 0.024 mPa·s
- viscosity (293.15 K, x2 = 0.4982): 0.819 ± 0.025 mPa·s
- viscosity (293.15 K, x2 = 0.628): 0.883 ± 0.027 mPa·s
- viscosity (293.15 K, x2 = 0.7512): 0.92 ± 0.028 mPa·s
- viscosity (293.15 K, x2 = 0.814): 0.971 ± 0.029 mPa·s
- viscosity (293.15 K, x2 = 0.875): 1.007 ± 0.031 mPa·s
- viscosity (293.15 K, x2 = 0.94): 1.058 ± 0.032 mPa·s
- mass density (293.15 K, x2 = 0): 865.072 ± 0.43 kg/m3
- speed of sound (293.15 K, x2 = 0): 1357 ± 5.5 m/s
- mass density (293.15 K, x2 = 0.074): 872.553 ± 0.42 kg/m3
- speed of sound (293.15 K, x2 = 0.074): 1361.7 ± 5.5 m/s
- mass density (293.15 K, x2 = 0.181): 883.818 ± 0.4 kg/m3
- speed of sound (293.15 K, x2 = 0.181): 1368.1 ± 5.5 m/s
- mass density (293.15 K, x2 = 0.334): 900.968 ± 0.38 kg/m3
- speed of sound (293.15 K, x2 = 0.334): 1376.2 ± 5.6 m/s
- mass density (293.15 K, x2 = 0.4982): 920.888 ± 0.34 kg/m3
- speed of sound (293.15 K, x2 = 0.4982): 1383.3 ± 5.6 m/s
- mass density (293.15 K, x2 = 0.628): 937.858 ± 0.32 kg/m3
- speed of sound (293.15 K, x2 = 0.628): 1395.1 ± 5.6 m/s
- mass density (293.15 K, x2 = 0.7512): 955.065 ± 0.29 kg/m3
- speed of sound (293.15 K, x2 = 0.7512): 1401.5 ± 5.6 m/s
- mass density (293.15 K, x2 = 0.814): 964.301 ± 0.28 kg/m3
- speed of sound (293.15 K, x2 = 0.814): 1410 ± 5.7 m/s
- mass density (293.15 K, x2 = 0.875): 973.59 ± 0.26 kg/m3
- speed of sound (293.15 K, x2 = 0.875): 1415.8 ± 5.7 m/s
- mass density (293.15 K, x2 = 0.94): 983.844 ± 0.25 kg/m3
- speed of sound (293.15 K, x2 = 0.94): 1424.2 ± 5.7 m/s
